Data on 26 compounds can be found in patent publication US11591355B2 (Peloton Therapeutics, Inc., priority 2017, dated 2023).

The target of one experiment is T1, Human CD73 (Homo sapiens, UniProt P21589).
T1 construct: purchased R&D Systems; host or cells: CHO cells
T1 sequence (P21589 27-549): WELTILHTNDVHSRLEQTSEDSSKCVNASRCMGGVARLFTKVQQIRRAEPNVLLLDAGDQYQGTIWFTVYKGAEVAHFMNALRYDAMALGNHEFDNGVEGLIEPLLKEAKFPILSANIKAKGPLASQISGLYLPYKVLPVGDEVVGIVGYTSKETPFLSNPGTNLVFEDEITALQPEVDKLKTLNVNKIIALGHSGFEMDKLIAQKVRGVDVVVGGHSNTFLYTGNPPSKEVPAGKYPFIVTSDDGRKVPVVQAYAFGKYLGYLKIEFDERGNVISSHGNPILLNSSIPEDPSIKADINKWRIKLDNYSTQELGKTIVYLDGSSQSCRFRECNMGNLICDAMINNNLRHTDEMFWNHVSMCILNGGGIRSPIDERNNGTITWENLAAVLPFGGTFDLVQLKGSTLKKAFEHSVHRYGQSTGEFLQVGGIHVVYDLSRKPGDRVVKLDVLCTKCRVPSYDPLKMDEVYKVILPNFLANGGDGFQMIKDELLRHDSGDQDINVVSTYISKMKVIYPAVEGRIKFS
The experiment in a line: CD73 Enzyme Assay. It is filed as biochemical.
Conditions: not given
In the case of `O=P(O)(COC[C@H]1O[C@@H](n2ccc3c(NC4CCCC4)nc(Cl)nc32)[C@H](O)[C@@H]1O)Oc1cccnc1` [Compound 233, [(2R,3S,4R,5R)-5-[2-chloro-4-(cyclopentyl-amino)pyrrolo[2,3-d]-pyrimidin-7-yl]-3,4-dihydroxy-tetrahydro-furan-2-yl]methoxy-methyl-(3-pyridyloxy)-phosphinic acid], the IC50 is less than 10 nM.

Staying with this experiment, now noted: 0.25 nM hCD73, 25 μM AMP, kinetic read at 360 nm; read-out: CD73 Enzyme Assay IC50.
For `O=P(O)(O)COC[C@H]1O[C@@H](n2ccc3c(N[C@@H]4CCNC4)nc(Cl)nc32)[C@H](O)[C@@H]1O` [Compound 241, [(2R,3S,4R,5R)-5-[2-chloro-4-[[(3R)-pyrrolidin-3-yl]amino]-pyrrolo[2,3-d]pyrimidin-7-yl]-3,4-dihydroxy-tetrahydrofuran-2-yl]-methoxymethylphos-phonic acid], the IC50 lay in the range of 100 to 1000 nM.
Turning to `O=P(O)(O)COC[C@H]1O[C@@H](n2cnc3c2ncn2ccnc32)[C@H](O)[C@@H]1O` [Compound 38], the IC50 was greater than 1000 nM.
Regarding `C[C@H](Nc1ncnc2c1ncn2[C@@H]1O[C@H](COCP(=O)(O)O)[C@@H](O)[C@H]1O)c1ccccc1F` [Compound 51, [(2R,3S,4R,5R)-5-[6-[[(1S)-1-(2-fluoro-phenyl)ethyl]amino]-purin-9-yl]-3,4-dihydroxy-tetrahydro-furan-2-yl]methoxy-methylphosphonic acid], the IC50 fell in the range of 100 to 1000 nM.
Same read-out and setting: the same measure for `N#Cc1ncnc2c1ncn2[C@@H]1O[C@H](COCP(=O)(O)O)[C@@H](O)[C@H]1O` [Compound 47, [(2R,3S,4R,5R)-5-(6-cyanopurin-9-yl)-3,4-dihydroxy-tetrahydro-furan-2-yl]methoxy-methylphosphonic acid]: greater than 1000 nM; for `O=C(OCOP(=O)(O)COC[C@H]1O[C@@H](n2ccc3c(NC4CCCC4)nc(Cl)nc32)[C@H](O)[C@@H]1O)N1CCOCC1` [Compound 237, [(2R,3S,4R,5R)-5-[2-chloro-4-(cyclopentyl-amino)pyrrolo[2,3-d]-pyrimidin-7-yl]-3,4-dihydroxy-tetrahydro-furan-2-yl]methoxy-methyl-(morpholine-4-carbonyloxy-methoxy)phosphinic acid]: 10 to 100 nM.
For the compound `CCNc1ncnc2c1ncn2[C@@H]1O[C@H](COCP(=O)(O)O)[C@@H](O)[C@H]1O` [Compound 17, [(2R,3S,4R,5R)-5-[6-(ethylamino)purin-9-yl]-3,4-dihydroxy-tetrahydrofuran-2-yl]-methoxymethylphos-phonic acid], the IC50 is greater than 1000 nM.
Same read-out and setting: under `CCOC(=O)[C@H](C)NP(=O)(COC[C@H]1O[C@@H](n2ccc3c(NC4CCCC4)nc(Cl)nc32)[C@H](O)[C@@H]1O)N[C@@H](C)C(=O)OCC` [Compound 220, ethyl (2S)-2-[[[(2R,3S,4R,5R)-5-[2-chloro-4-(cyclo-pentylamino)pyrrolo-[2,3-d]pyrimidin-7-yl]-3,4-dihydroxy-tetra-hydrofuran-2-yl]-methoxymethyl-[[(1S)-2-ethoxy-1-methyl-2-oxo-ethyl]amino]-phosphoryl]amino]-propanoate] stands greater than 1000 nM.
The same measure, in the same setting: the same measure for `NS(=O)(=O)c1cccc(CNc2ncnc3c2ncn3[C@@H]2O[C@H](COCP(=O)(O)O)[C@@H](O)[C@H]2O)c1` [Compound 63]: greater than 1000 nM; for `O=P(O)(O)CSC[C@H]1O[C@@H](n2cnc3c(NCc4ccccc4)ncnc32)[C@H](O)[C@@H]1O` [Compound 151, [(2S,3S,5R)-5-[6-(benzylamino)purin-9-yl]-3,4-dihydroxy-tetrahydrofuran-2-yl]methylsulfanyl-methylphosphonic acid]: greater than 1000 nM; for `O=P(O)(O)COC[C@H]1O[C@@H](n2cnc3c(NCCO)ncnc32)[C@H](O)[C@@H]1O` [Compound 13, [(2R,3S,4R,5R)-3,4-dihydroxy-5-[6-(2-hydroxyethylamino)-purin-9-yl]tetrahydro-furan-2-yl]methoxy-methylphosphonic acid]: greater than 1000 nM.
Still for that read-out and setting: the same measure for `CNc1nc(NCc2ccccc2)c2ncn([C@@H]3O[C@H](COCP(=O)(O)O)[C@@H](O)[C@H]3O)c2n1` [Compound 5, [(2R,3S,4R,5R)-5-[6-(benzylamino)-2-(methylamino)purin-9-yl]-3,4-dihydroxy-tetrahydrofuran-2-yl]methoxymethyl-phosphonic acid]: greater than 1000 nM; for `O=P(O)(O)COC[C@H]1O[C@@H](n2ccc3c(N[C@H](CO)c4ccccc4)nc(Cl)nc32)[C@H](O)[C@@H]1O` [Compound 217, [(2R,3S,4R,5R)-5-[2-chloro-4-[[(1S)-2-hydroxy-1-phenyl-ethyl]amino]pyrrolo-[2,3-d]pyrimidin-7-yl]-3,4-dihydroxy-tetrahydrofuran-2-yl]methoxymethyl-phosphonic acid]: 100 to 1000 nM.
Consider `O=P(O)(O)COC[C@H]1O[C@@H](n2cnc3c(Nc4ccccc4)ncnc32)[C@H](O)[C@@H]1O` [Compound 30, [(2R,3S,4R,5R)-5-(6-anilinopurin-9-yl)-3,4-dihydroxy-tetrahydro-furan-2-yl]methoxy-methylphosphonic acid], for which the IC50 was greater than 1000 nM.
Still for that read-out and setting: the same measure for `CC(C)(C)Nc1ncnc2c1ncn2[C@@H]1O[C@H](COCP(=O)(O)O)[C@@H](O)[C@H]1O` [Compound 33, [(2R,3S,4R,5R)-5-[6-(tert-butylamino)purin-9-yl]-3,4-dihydroxy-tetrahydrofuran-2-yl]-methoxymethylphos-phonic acid]: greater than 1000 nM.
In the case of `CC(C)OP(=O)(O)COC[C@H]1O[C@@H](n2ccc3c(NC4CCCC4)nc(Cl)nc32)[C@H](O)[C@@H]1O` [Compound 224, [(2R,3S,4R,5R)-5-[2-chloro-4-(cyclopentyl-amino)pyrrolo[2,3-d]-pyrimidin-7-yl]-3,4-dihydroxy-tetrahydro-furan-2-yl]methoxy-methyl-isopropoxy-phosphinic acid], the IC50 was greater than 1000 nM.
Still for that read-out and setting: under `N#Cc1cccc(CNc2ncnc3c2ncn3[C@@H]2O[C@H](COCP(=O)(O)O)[C@@H](O)[C@H]2O)c1` [Compound 58, [(2R,3S,4R,5R)-5-[6-[(3-cyanophenyl)-methylamino]purin-9-yl]-3,4-dihydroxy-tetrahydrofuran-2-yl]-methoxymethylphos-phonic acid] stands greater than 1000 nM; under `CC(C)(C)C(=O)OCOP(=O)(CS(=O)(=O)C[C@H]1O[C@@H](n2ccc3c(NC4CCCC4)nc(Cl)nc32)[C@H](O)[C@@H]1O)OCOC(=O)C(C)(C)C` [Compound 165, (((((((2S,3S,4R,5R)-5-(2-chloro-4-(cyclopentylamino)-7H-pyrrolo[2,3-d]pyrimidin-7-yl)-3,4-dihydroxytetrahydrofuran-2-yl)methyl)sulfonyl)methyl)phosphoryl)bis(oxy))bis(methylene) bis(2,2-dimethylpropanoate)], 100 to 1000 nM.
On to `NC(=O)c1cccc(CNc2ncnc3c2ncn3[C@@H]2O[C@H](COCP(=O)(O)O)[C@@H](O)[C@H]2O)c1` [Compound 65, [(2R,3S,4R,5R)-5-[6-[(3-carbamoylphenyl)-methylamino]purin-9-yl]-3,4-dihydroxy-tetrahydrofuran-2-yl]-methoxymethylphos-phonic acid], for which the IC50 is greater than 1000 nM.
As for `CN(C)C(=O)COP(=O)(O)COC[C@H]1O[C@@H](n2ccc3c(NC4CCCC4)nc(Cl)nc32)[C@H](O)[C@@H]1O` [Compound 234, [(2R,3S,4R,5R)-5-[2-chloro-4-(cyclopentyl-amino)pyrrolo[2,3-d]-pyrimidin-7-yl]-3,4-dihydroxy-tetrahydro-furan-2-yl]methoxy-methyl-[2-(dimethyl-amino)-2-oxo-ethoxy]-phosphinic acid], the IC50 lay in the range of 100 to 1000 nM.
Regarding `O=P(O)(O)COC[C@H]1O[C@@H](n2ccc3c(NC4CNC4)nc(Cl)nc32)[C@H](O)[C@@H]1O` [Compound 245, [(2R,3S,4R,5R)-5-[4-(azetidin-3-ylamino)-2-chloro-pyrrolo[2,3-d]pyrimidin-7-yl]-3,4-dihydroxy-tetrahydro-furan-2-yl]methoxy-methylphosphonic acid], the IC50 was in the range of 100 to 1000 nM.
Consider `CNc1nc(C#N)nc2c1ccn2[C@@H]1O[C@H](COCP(=O)(O)O)[C@@H](O)[C@H]1O` [Compound 118, [(2R,3S,4R,5R)-5-[2-cyano-4-(methyl-amino)pyrrolo[2,3-d]-pyrimidin-7-yl]-3,4-dihydroxy-tetrahydro-furan-2-yl]methoxy-methylphosphonic acid], for which the IC50 lay in the range of 100 to 1000 nM.
With `CC(C)Nc1nc(Cl)nc2c1ncn2[C@@H]1O[C@H](COCP(=O)(O)O)[C@H]2OC(C)(C)O[C@H]21` [Compound 14, [(3aR,4R,6R,6aR)-4-[2-chloro-6-(isopropyl-amino)purin-9-yl]-2,2-dimethyl-3a,4,6,6a-tetrahydrofuro[3,4-d] [1,3]dioxol-6-yl]-methoxymethylphos-phonic acid], the IC50 is greater than 1000 nM.
As for `O=P(O)(O)COC[C@H]1O[C@@H](n2cnc3c(NC4CCC4)ncnc32)[C@H](O)[C@@H]1O` [Compound 34, [(2R,3S,4R,5R)-5-[6-(cyclobutylamino)-purin-9-yl]-3,4-dihydroxy-tetrahydro-furan-2-yl]methoxy-methylphosphonic acid], the IC50 fell in the range of 100 to 1000 nM.

The experiment is the same for the next values; noted with them: read-out: CD73 Enzyme Assay IC50.
For the compound `NS(=O)(=O)c1ccc(CNc2ncnc3c2ncn3[C@@H]2O[C@H](COCP(=O)(O)O)[C@@H](O)[C@H]2O)cc1` [Compound 59], the IC50 was greater than 1000 nM.
Still for that read-out and setting: under `O=P(O)(O)CS(=O)(=O)C[C@H]1O[C@@H](n2cnc3c(NCc4ccccc4)ncnc32)[C@H](O)[C@@H]1O` [Compound 148] stands greater than 1000 nM.

Usually IC50 stands for the midpoint of a concentration-inhibition curve.
